Reference: US20050004070A1, “Anti-infectious carbohydrates” (priority 2001, published 2005)
Entries after “also recorded” stand apart in the source; their conditions may differ.

Each compound was assayed on listeria bacteria, in particular Listeria monocytogenes (assay: Invasion and infection of mammal cells by listeria bacteria). Conditions: no method or numbers given.
Format: cell-based

| Compound | inhibitory action against listeria bacteria (invasion and infection of mammal cells) |
| --- | --- |
| CC(=O)N[C@H]1[C@H](O[C@H]2[C@@H](O)[C@@H](CO)O[C@@H](O[C@@H]([C@H](O)[C@@H](O)C=O)[C@H](O)CO)[C@@H]2O)O[C@H](CO)[C@@H](O[C@@H]2O[C@@H](C)[C@@H](O)[C@@H](O)[C@@H]2O)[C@@H]1O[C@@H]1O[C@H](CO)[C@H](O)[C@H](O)[C@H]1O [LNFP II] | did not shown any such action |
| LNFP III | did not shown any such action |
| lacto-N-fucopentaose I [LNFP I] | particularly strong inhibitory effect; also recorded: strong, yet dose-dependant inhibitory action |
